Measurements published in US8541585B2, “N-acyl cyclic amine derivative or pharmaceutically acceptable salt thereof” (Dainippon Sumitomo Pharma Co., Ltd., priority 2010, dated 2013).

Experiments:
[1] = molecular target: human D2L receptor (Homo sapiens, UniProt P14416); test: Dopamine D2L receptor binding assay ([3H]-spiperone); settings: 10 nM test drug; [3H]-spiperone 0.5 nM; human D2L receptor-expressing CHO cell membrane; read-out: BINDING INHIBITION RATE (%) D2L 10 nM
Description: (1) Dopamine D2L Receptor Binding Assay
D2L receptor binding assay was performed in reference to a method described by Hirose et al. (Japan. J. Pharmacol., 53, 321-329, 1990). After a reaction in a total volume of 200 μL of 50 mM Tris-HCl (pH=7.6) buffer solution containing 50 μL of [^3H]-spiperone (final concentration 0.5 nM), 1 μL of test drug in DMSO, and 149 μL of human D2L receptor-expressing CHO cell membrane sample, human D2L receptor binding activity of [^3H]-spiperone was measured. The reaction solution let stand for 60 minutes at room temperature, and then it was quickly added on a glass fiber filter plate (Multiscreen FB, Millipore inc.) coated with 0.3% polyethyleneimine (PEI) and filtered under reduced pressure. The glass fiber filter was washed with 200 μL of ice-cooled 50 mM Tris-HCl (pH=7.6) twice, repeatedly filtered under reduced pressure, and then transferred to a vial containing 4 mL of Ecoscint A (National Diagnostics inc.). The residual radioactivity on the glass fiber filter was measured by a liquid scintillation counter. Nonspecific binding was measured in the presence of 10 μM of spiperone, and [^3H]-spiperone binding inhibition rate in the presence of 10 nM of test drug was determined. The larger binding inhibition rate (%) means that test drug has the higher binding affinity for human D2L receptor.

[2] = molecular target: T1, human 5-HT2A receptor (Homo sapiens, UniProt P28223); test: Serotonin 5-HT2A receptor binding assay ([3H]-ketanserin); settings: [3H]-ketanserin 1 nM, human 5-HT2A receptor-expressing CHO cell membrane; for inhibition at 0.001 µM: 1 nM test drug, read-out: BINDING INHIBITION RATE (%) 5HT2A 1 nM; for inhibition at 0.01 µM: 10 nM test drug, read-out: BINDING INHIBITION RATE (%) 5HT2A 10 nM
T1 construct: expressed in transfected cells; host or cells: CHO cells (membrane preparation)
T1 sequence (P28223 whole entry): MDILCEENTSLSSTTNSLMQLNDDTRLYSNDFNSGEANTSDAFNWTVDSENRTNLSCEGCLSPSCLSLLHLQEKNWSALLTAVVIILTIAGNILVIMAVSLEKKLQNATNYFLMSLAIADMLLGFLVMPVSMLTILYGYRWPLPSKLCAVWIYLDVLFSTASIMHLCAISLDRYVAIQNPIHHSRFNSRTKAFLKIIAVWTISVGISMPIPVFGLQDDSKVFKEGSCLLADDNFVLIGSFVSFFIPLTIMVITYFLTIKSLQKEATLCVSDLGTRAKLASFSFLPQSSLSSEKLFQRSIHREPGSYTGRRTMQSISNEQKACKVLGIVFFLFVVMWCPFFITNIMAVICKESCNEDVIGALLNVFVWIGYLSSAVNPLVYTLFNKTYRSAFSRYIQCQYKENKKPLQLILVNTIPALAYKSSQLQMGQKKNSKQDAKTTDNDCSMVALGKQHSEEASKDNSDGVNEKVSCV
Description: (2) Serotonin 5-HT2A Receptor Binding Assay
5-HT2A receptor binding assay was performed in reference to a method described by Hirose et al. (Japan. J. Pharmacol., 53, 321-329, 1990). After a reaction in a total volume of 200 μL of 50 mM Tris-HCl (pH=7.6) buffer solution containing 50 μL of [^3H]-ketanserin (final concentration 1 nM), 1 μL of test drug in DMSO, and 149 μL of human 5-HT2A receptor-expressing CHO cell membrane sample, human 5-HT2A receptor binding activity of [^3H]-ketanserin was measured. The reaction solution let stand for 15 minutes at 37° C., and then it was quickly added on a glass fiber filter plate (Multiscreen FB, Millipore inc.) coated with 0.05% Brij 35 and filtered under reduced pressure. The glass fiber filter was washed with 200 μL of ice-cooled 50 mM Tris-HCl (pH=7.6) twice, repeatedly filtered under reduced pressure, and then transferred to a vial containing 4 mL of Ecoscint A (National Diagnostics inc.). The residual radioactivity on the glass fiber filter was measured by a liquid scintillation counter. Nonspecific binding was measured in the presence of 10 μM of MDL-100907, and [^3H]-ketanserin binding inhibition rate in the presence of 1 nM or 10 nM of test drug was determined.

[3] = molecular target: T2, human 5-HT6 receptor (Homo sapiens, UniProt P50406); test: Serotonin 5-HT6 receptor binding assay ([3H]-clozapine); settings: 100 nM test drug; [3H]-clozapine 2 nM; human 5-HT6 receptor-expressing CHO cell membrane; read-out: BINDING INHIBITION RATE (%) 5HT6 100 nM
T2 construct: expressed in transfected cells; host or cells: CHO cells (membrane preparation)
T2 sequence (P50406 whole entry): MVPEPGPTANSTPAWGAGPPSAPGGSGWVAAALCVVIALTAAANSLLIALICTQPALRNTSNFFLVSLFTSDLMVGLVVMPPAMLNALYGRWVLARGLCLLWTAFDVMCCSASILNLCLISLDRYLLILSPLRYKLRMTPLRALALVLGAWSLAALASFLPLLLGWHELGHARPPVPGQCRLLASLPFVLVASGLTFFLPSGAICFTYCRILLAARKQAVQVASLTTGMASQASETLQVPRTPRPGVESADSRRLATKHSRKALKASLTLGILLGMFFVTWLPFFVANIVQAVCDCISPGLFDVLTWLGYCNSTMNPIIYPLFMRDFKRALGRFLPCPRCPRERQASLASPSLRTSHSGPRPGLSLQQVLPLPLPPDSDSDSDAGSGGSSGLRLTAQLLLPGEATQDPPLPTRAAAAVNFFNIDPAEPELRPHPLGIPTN
Description: (3) Serotonin 5-HT6 Receptor Binding Assay
After a reaction in a total volume of 200 μL of 50 mM Tris-HCl (pH=7.6), 4 mM CaCl2, and 0.5 mM EDTA buffer solution containing 50 μL of [^3H]-clozapine (final concentration 2 nM), 1 μL of test drug in DMSO, and 149 μL of human 5-HT6 receptor-expressing CHO cell membrane sample, human 5-HT6 receptor binding activity of [^3H]-clozapine was measured. The reaction solution let stand for 40 minutes at room temperature, and then it was quickly added on a glass fiber filter plate (Multiscreen FB, Millipore inc.) coated with 0.3% polyethyleneimine (PEI) and filtered under reduced pressure. The glass fiber filter was washed with 200 μL of ice-cooled 50 mM Tris-HCl (pH=7.6) twice, repeatedly filtered under reduced pressure, and then transferred to a vial containing 4 mL of Ecoscint A (National Diagnostics inc.). The residual radioactivity on the glass fiber filter was measured by a liquid scintillation counter. Nonspecific binding was measured in the presence of 10 μM of SB-258585, and [^3H]-clozapine binding inhibition rate in the presence of 100 nM of test drug was determined.

[4] = molecular target: T3, human α1D receptor (Homo sapiens, UniProt P25100); test: Adrenaline α1D receptor binding assay ([3H]-prazosin); settings: 100 nM test drug; [3H]-prazosin 0.6 nM; human α1D receptor-expressing CHO cell membrane; read-out: BINDING INHIBITION RATE (%) α1D 100 nM
T3 construct: expressed in transfected cells; host or cells: CHO cells (membrane preparation)
T3 sequence (P25100 1-572): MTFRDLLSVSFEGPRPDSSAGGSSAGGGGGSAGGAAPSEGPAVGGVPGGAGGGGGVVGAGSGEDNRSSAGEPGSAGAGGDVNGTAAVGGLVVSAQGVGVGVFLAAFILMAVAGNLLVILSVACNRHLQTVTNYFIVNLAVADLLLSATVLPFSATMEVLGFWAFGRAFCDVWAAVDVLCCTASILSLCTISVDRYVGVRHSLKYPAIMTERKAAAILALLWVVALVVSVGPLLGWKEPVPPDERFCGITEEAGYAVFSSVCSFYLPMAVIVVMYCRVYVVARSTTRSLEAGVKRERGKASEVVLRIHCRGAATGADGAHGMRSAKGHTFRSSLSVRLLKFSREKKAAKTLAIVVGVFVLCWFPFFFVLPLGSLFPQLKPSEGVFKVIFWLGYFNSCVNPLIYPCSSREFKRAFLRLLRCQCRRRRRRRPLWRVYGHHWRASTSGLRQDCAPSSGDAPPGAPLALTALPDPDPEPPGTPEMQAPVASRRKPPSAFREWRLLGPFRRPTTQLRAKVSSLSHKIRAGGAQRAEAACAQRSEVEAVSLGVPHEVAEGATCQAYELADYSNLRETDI
Description: (4) Adrenaline α1D Receptor Binding Assay
After a reaction in a total volume of 200 μL of 50 mM Tris-HCl (pH=7.6) buffer solution containing 50 μL of [^3H]-prazosin (final concentration 0.6 nM), 1 μL of test drug in DMSO, and 149 μL of human α1D receptor-expressing CHO cell membrane sample, human α1D receptor binding activity of [^3H]-prazosin was measured. The reaction solution let stand for 30 minutes at room temperature, and then it was quickly added on a glass fiber filter plate (Multiscreen FB, Millipore inc.) coated with 0.3% polyethyleneimine (PEI) and filtered under reduced pressure. The glass fiber filter was washed with 200 μL of ice-cooled 50 mM Tris-HCl (pH=7.6) twice, repeatedly filtered under reduced pressure, and then transferred to a vial containing 4 mL of Ecoscint A (National Diagnostics inc.). The residual radioactivity on the glass fiber filter was measured by a liquid scintillation counter. Nonspecific binding was measured in the presence of 1 μM of prazosin, and [^3H]-prazosin binding inhibition rate in the presence of 100 nM of test drug was determined.

Chain of human D2L receptor (P14416 whole entry): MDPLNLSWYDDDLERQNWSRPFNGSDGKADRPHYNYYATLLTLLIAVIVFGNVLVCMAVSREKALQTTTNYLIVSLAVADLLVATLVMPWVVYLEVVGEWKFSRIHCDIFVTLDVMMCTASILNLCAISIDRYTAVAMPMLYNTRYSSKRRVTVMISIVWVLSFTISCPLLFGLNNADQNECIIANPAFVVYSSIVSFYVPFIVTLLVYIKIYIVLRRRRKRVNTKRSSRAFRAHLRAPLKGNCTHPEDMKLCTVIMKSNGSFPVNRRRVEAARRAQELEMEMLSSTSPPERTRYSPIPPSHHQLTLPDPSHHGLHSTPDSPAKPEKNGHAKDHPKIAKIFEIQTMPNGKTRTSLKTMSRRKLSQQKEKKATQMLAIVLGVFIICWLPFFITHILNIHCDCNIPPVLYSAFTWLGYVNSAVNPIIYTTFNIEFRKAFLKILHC

SMILES | inhibition at 0.01 µM [1] | inhibition at 0.001 µM [2] | inhibition at 0.01 µM [2] | inhibition at 0.1 µM [3] | inhibition at 0.1 µM [4]
COc1ccc2[nH]c(C(=O)N3CCCC[C@H]3CCN3CCC(c4coc5ccccc45)CC3)cc2c1 [Example 26] | 77% | 77% | 98% | 65% | 67%
Cc1ccc2[nH]c(C(=O)N3CCOC[C@H]3CCN3CCC(c4coc5ccccc45)CC3)cc2c1 [Example 27] | 87% | – | 93% | 85% | 97%
O=C(/C=C/c1ccc2c(c1)OCO2)N1CCC[C@H](CN2CCC(c3coc4ccccc34)CC2)C1 [Example 29] | 80% | – | 100% | 85% | 92%
COc1ccc2cc(C(=O)N3CCCC[C@H]3CCN3CCC(c4c[nH]c5ccccc45)CC3)[nH]c2c1 [Example 31] | 78% | – | 96% | 88% | 54%
COc1ccc2cc(C(=O)N3CC[C@H]3CCN3CCC(c4c[nH]c5ccccc45)CC3)[nH]c2c1 [Example 32] | 36% | – | 95% | 97% | 68%
O=C(/C=C/c1ccc2c(c1)OCO2)N1CCC[C@H](CN2CCC(c3c[nH]c4ccccc34)CC2)C1 [Example 34] | 75% | – | 98% | 86% | 93%
COc1ccc2cc(C(=O)N3C[C@H](O)C[C@H]3CCN3CCC(c4c[nH]c5ccccc45)CC3)[nH]c2c1 [Example 35] | 37% | – | 89% | 79% | 81%
CCNC(=O)O[C@@H]1C[C@@H](CCN2CCC(c3c[nH]c4ccccc34)CC2)N(C(=O)c2cc3cc(OC)ccc3[nH]2)C1 [Example 36] | 48% | – | 87% | 86% | 75%
COc1ccc2[nH]c(C(=O)N3C[C@@](C)(O)C[C@H]3CCN3CCC(c4c[nH]c5ccccc45)CC3)cc2c1 [Example 38] | 72% | – | 97% | 86% | 67%
Cc1ccc2cc(C(=O)N3C[C@H](O)CC[C@H]3CCN3CCC(c4c[nH]c5ccccc45)CC3)[nH]c2c1 [Example 39] | 77% | 70% | – | 86% | 69%
Cc1ccc2cc(C(=O)N3CCOCCC3CCN3CCC(c4c[nH]c5ccccc45)CC3)[nH]c2c1 (stereo not shown) [Example 43] | 74% | 77% | – | 83% | 82%
O=C(c1ccc(F)cc1)C1CCN(C[C@H]2CCCN(C(=O)c3cc4ccc(Cl)cc4[nH]3)C2)CC1 [Example 45] | 82% | 84% | – | 97% | 46%
Cc1cc2c3c(c1)cc(C(=O)N1CCC[C@H]1CCN1CCC(C(=O)c4ccc(F)cc4)CC1)n3CCC2=O [Example 46] | 58% | 48% | – | 82% | 54%
COc1cc2cc(C(=O)N3CCC[C@H]3CCN3CCC(C(=O)c4ccc(F)cc4)CC3)[nH]c2cn1 [Example 50] | 71% | 66% | – | 88% | 43%
O=C(c1ccc(F)cc1)C1CCN(CC[C@@H]2CCCN2C(=O)c2cc(-c3ccccc3)n[nH]2)CC1 [Example 51] | 81% | 76% | – | 95% | 51%
O=C(c1ccc(F)cc1)C1CCN(CC[C@@H]2CCCN2C(=O)c2[nH]c3ccccc3c2C(=O)N2CCCCC2)CC1 [Example 54] | 71% | 7% | – | 81% | 63%
N#Cc1ccc2[nH]c(C(=O)N3CCC[C@H]3CCN3CCC(C(=O)c4ccc(F)cc4)CC3)cc2c1 [Example 56] | 84% | 70% | – | 91% | 70%
O=C(c1nc2cc(Cl)ccc2[nH]1)N1CCCC[C@H]1CCN1CCC(c2c[nH]c3ccccc23)CC1 [Example 58] | 57% | 74% | 91% | 98% | 97%
Cc1ccc2nc(C(=O)N3CCC[C@H]3CCN3CCC(C(=O)c4ccc(F)cc4)CC3)[nH]c2c1 [Example 59] | 91% | 58% | – | 87% | 95%
COc1ccc2[nH]c(C(=O)N3CCC[C@H]3CCN3CCC(c4cn(-c5ccc(F)cc5)c5ccc(Cl)cc45)CC3)cc2c1 [Example 60] | 76% | – | 78% | 97% | 76%
